Measurements reported in patent US5360803A, “Composition and method for treating cancer” (Dan Farber Cancer Institute, priority 1992, dated 1994).
Like-named read-outs stand apart in the source and are kept apart here.

Columns and labels:
Type in all cases: cell-based
CV-1 cells = experiment: selective killing assay, colony number reduced to 50% of control, normal monkey kidney epithelial cell line CV-1; settings: 24 hours treatment; for IC50: Primates; for CV-1 (IC50): Table III
From the text: The control received culture media only.

CX-1 cells = experiment: selective killing assay, colony number reduced to 50% of control, human colon carcinoma cell line CX-1; settings: for IC50 / CX-1 (IC50): human colon carcinoma, 24 hours treatment, colony count after 7 to 10 days;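 on all read-outs here: colonies stained with crystal violet and counted, control cells given medium alone, exposure at 37 °C, normal monkey kidney epithelial CV-1 cells as the non-cancer comparator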
EJ cells = experiment: colony assay of Example 1 with human bladder carcinoma EJ cell line; settings: for Selectivity: CV-1/EJ; for IC50: Homo sapiens, EJ, 24 h, Table IV, human bladder carcinoma, 24 hours treatment;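 on all read-outs here: colony formation assay with 24 h compound exposure at 37 °C, then 7–10 days drug-free regrowth, colonies stained with crystal violet, controls given medium alone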
Procedure: Human colon carcinoma cell line CX-1 or normal monkey kidney epithelial cell line CV-1 was chosen as representatives of cancer cells and normal cells, respectively. […] CX-1 cells (2,000 cells/well) and CV-1 cells (1,000 cells/well) were plated in 24-well plastic culture plates. […] The control received culture media only. Cells were treated with compounds of General Formulas (I) to (V) at 37° C. for 24 hours. After rinsing with fresh culture medium three times, the cells were further incubated at 37° C. for 7 to 10 days. Cell colonies were fixed and stained with 2% crystal violet in 70% ethanol for 10 minutes and rinsed in water. […] The selectivity is defined as the ratio of IC50 for CV-1 and IC50 for CX-1.

[1] = CV-1, Table III, normal monkey kidney epithelial cells, colony count after 7 to 10 days
[2] = normal monkey kidney epithelial cells, colony count after 7 to 10 days

| SMILES | IC50 (CV-1 cells; [1]) [µg/mL] | Selectivity (ratio of IC50 for CV-1 and IC50 for CX-1) (CX-1 cells; CV-1/CX-1) | IC50 (CX-1 cells; Homo sapiens, CX-1, Table III) [µg/mL] | other results |
| --- | --- | --- | --- | --- |
| CCn1c(=Cc2sc3c4ccccc4ccc3[n+]2CC)sc(=C2Sc3c(ccc4ccccc34)N2C)c1=O [Compound 99] | 10 | 100 | 0.1 |  |
| CCn1c(=Cc2cccc[n+]2CC)sc(=C2Sc3ccccc3N2C)c1=O [Compound 18] | 20 | 4000 | 0.005 |  |
| CCn1c(=Cc2sc3ccc(OC)cc3[n+]2CC)sc(=C2Sc3ccc4ccccc4c3N2C)c1=O [Compound 95] | 20 | 500 | 0.04 |  |
| CCn1c(=Cc2sc3ccc(Cl)cc3[n+]2CC)sc(=C2Sc3ccccc3N2C)c1=O [Compound 40] | 6 | 200 | 0.03 |  |
| CCn1c(=CC2=[N+](CC)C(C)CS2)sc(=C2Sc3ccc4ccccc4c3N2C)c1=O (stereo not drawn) [Compound 309] | 4 | 400 | 0.01 |  |
| CCn1c(=Cc2[se]c3ccccc3[n+]2CC)sc(=C2Sc3ccc(Cl)cc3N2C)c1=O [Compound 63] | 20 | 100 |  | IC50 (CX-1 cells; CX-1, Table III): 0.2 µg/mL |
| CCn1c(=Cc2sc3ccccc3[n+]2CC)sc(=C2Sc3ccc(OC)cc3N2C)c1=O [Compound 47] | 6 | 150 | 0.04 |  |
| CCn1c(=Cc2oc3cc4ccccc4cc3[n+]2CC)sc(=C2Sc3ccc4ccccc4c3N2C)c1=O [Compound 96] | 20 | 333 | 0.06 |  |
| CN1C(=c2sc(=Cc3oc4ccccc4[n+]3C)n(C)c2=O)Sc2ccccc21 [Compound 46] | 10 | 100 |  | IC50 (CX-1 cells; CX-1, Table III): 0.1 µg/mL |
| CCn1c(=CC2=[N+](CC)CCS2)sc(=C2Sc3ccc4ccccc4c3N2C)c1=O [Compound 86] | 10 | 200 | 0.05 |  |
| CCn1c(=Cc2sc3ccc4ccccc4c3[n+]2CC)sc(=C2Sc3ccc(Cl)cc3N2C)c1=O [Compound 223] | 20 | 200 | 0.1 |  |
| CCn1c(=Cc2sc3ccccc3[n+]2CC)sc(=C2Sc3c(ccc4ccccc34)N2C)c1=O [Compound 98] | 8 | 160 | 0.05 |  |
| CC[n+]1c(C=c2sc(=C3Sc4ccccc4N3C)c(=O)n2C2CCCCC2)oc2ccccc21 [Compound 42] | 2 | 100 | 0.02 |  |
| CCN1C(=CC=c2sc(=Cc3sc4c([n+]3CC)CCCC4)n(CC)c2=O)Oc2ccccc21 [C, reference compound] | 2 | 50 | 0.04 |  |
| CCn1c(=Cc2sc3c4ccccc4ccc3[n+]2CC)sc(=C2SC=C(C)N2C)c1=O [Compound 131] | 6 | 120 | 0.05 |  |
| CCn1c(=Cc2scc(C)[n+]2CC)sc(=C2Sc3ccccc3N2C)c1=O [Compound 32] | 6 | 150 | 0.04 |  |
| CCn1c(=Cc2sc3c4ccccc4ccc3[n+]2CC)sc(=C2Sc3ccc4ccccc4c3N2C)c1=O [Compound 91] |  | 500 |  | CV-1 (IC50) (CV-1 cells; [2]): 20 µg/mL; CX-1 (IC50) (CX-1 cells; Table III): 0.04 µg/mL |
| CCn1c(=Cc2ccc3ccccc3[n+]2CC)sc(=C2Sc3ccccc3N2C)c1=O [Compound 20] | 2 |  | 0.02 | Selectivity (ratio of IC50 for CV-1 and IC50 for CX-1) (CX-1 cells): 100 |
| CC[N+]1=C(C=c2sc(=C3Oc4ccc5ccccc5c4N3C)c(=O)n2Cc2ccccc2)SCC1 [Compound 314] | 10 | 200 | 0.05 |  |

| SMILES | IC50 (CV-1 cells; [1]) [µg/mL] | Selectivity (ratio of IC50 for CV-1 and IC50 for CX-1) (CX-1 cells; CV-1/CX-1) | IC50 (CX-1 cells; Homo sapiens, CX-1, Table III) [µg/mL] | other results |
| --- | --- | --- | --- | --- |
| C=CCn1c(=Cc2oc3ccc4ccccc4c3[n+]2C)sc(=C2Oc3c(ccc4ccccc34)N2C)c1=O [Compound 319] |  |  |  | IC50 (CV-1 cells; CV-1, 24 h, Table IV): 6 µg/mL; Selectivity (EJ cells): 300; IC50 (EJ cells): 0.02 µg/mL |
| CCn1c(=Cc2oc3ccccc3[n+]2C)sc(=C2Sc3ccccc3N2C)c1=O [Compound 25] |  | 150 |  | CV-1 (IC50) (CV-1 cells; [2]): 6 µg/mL; CX-1 (IC50) (CX-1 cells; Table III): 0.04 µg/mL |
| CCn1c(=Cc2sc3ccccc3[n+]2CC)sc(=C2Oc3ccc(OC)cc3N2C)c1=O [Compound 105] | 6 | 120 | 0.05 |  |
| CCn1c(=Cc2sc3ccc4ccccc4c3[n+]2CC)sc(=C2C=Cc3ccccc3N2C)c1=O [Compound 163] | 20 | 667 | 0.03 |  |
| CCn1c(=CC2=[N+](CC)CCS2)sc(=C2Sc3ccc(OC)cc3N2C)c1=O [Compound 65] | 20 | 100 | 0.2 |  |
| CCn1c(=Cc2sc3c4ccccc4ccc3[n+]2CC)sc(=C2Sc3ccc(Cl)cc3N2C)c1=O [Compound 54] | 20 | 400 | 0.05 |  |
| CCn1c(=Cc2sc3ccccc3[n+]2CC)sc(=C2SC3=C(CCCC3)N2C)c1=O [Compound 129] | 10 | 100 | 0.1 |  |
| CCn1c(=Cc2oc3ccc(OC)cc3[n+]2CC)sc(=C2Sc3ccccc3N2C)c1=O [Compound 35] | 6 | 150 | 0.04 |  |
| CCn1c(=Cc2sc3ccc4ccccc4c3[n+]2CC)sc(=C2Sc3ccc(C(F)(F)F)cc3N2C)c1=O [Compound 307] | 6 | 120 | 0.05 |  |
| CCn1c(=Cc2oc3ccccc3[n+]2CC)sc(=C2Oc3ccc4ccccc4c3N2C)c1=O [Compound 117] | 4 | 133 | 0.03 |  |
| CCn1c(=Cc2sc3c4ccccc4ccc3[n+]2CC)sc(=C2SCCN2C)c1=O [Compound 121] | 20 | 200 | 0.1 |  |
| CCn1c(=CC2=[N+](C)c3ccccc3C2(C)C)sc(=C2Sc3ccccc3N2C)c1=O [Compound 17] | 10 | 167 | 0.06 |  |
| CCn1c(=Cc2oc3ccccc3[n+]2CC)sc(=C2Sc3ccccc3N2C)c1=O [Compound 34] |  | 267 |  | CV-1 (IC50) (CV-1 cells; [2]): 8 µg/mL; CX-1 (IC50) (CX-1 cells; Table III): 0.03 µg/mL |
| CCn1c(=Cc2cc[n+](CC)c3ccccc23)sc(=C2Sc3ccccc3N2C)c1=O [Compound 24] | 1.5 | 150 | 0.01 |  |
| CCn1c(=Cc2oc3ccccc3[n+]2CC)sc(=C2Oc3ccccc3N2C)c1=O [Compound 104] | 18 | 180 | 0.1 |  |
| CC[n+]1c(C=c2sc(=C3Sc4ccc5ccccc5c4N3C)c(=O)n2CC(=O)OC)sc2c3ccccc3ccc21 [Compound 311] | 20 | 667 | 0.03 | IC50 (CV-1 cells; CV-1, 24 h, Table IV): 20 µg/mL; Selectivity (EJ cells): 400; IC50 (EJ cells): 0.05 µg/mL |
| CCn1c(=Cc2sc3c4ccccc4ccc3[n+]2CC)sc(=C2Oc3ccc4ccccc4c3N2C)c1=O [Compound 115] | 6 | 120 | 0.05 |  |
| CCn1c(=Cc2oc3ccccc3[n+]2CC)sc(=C2Sc3ccccc3N2C)c1=O [Compound 38] |  | 333 |  | CV-1 (IC50) (CV-1 cells; [2]): 10 µg/mL; CX-1 (IC50) (CX-1 cells; Table III): 0.03 µg/mL |
| CCn1c(=Cc2sc3ccc4ccccc4c3[n+]2CC)sc(=C2Sc3c(ccc4ccccc34)N2C)c1=O [Compound 255] | 5 | 100 | 0.05 |  |
